Assay results taken from US11827628B2, “Compositions and methods for inhibition of the JAK pathway” (Rigel Pharmaceuticals, Inc., priority 2005, dated 2023).

Columns and labels:
[1] = test system: up-regulation of ICAM-1 (CD54) by IFNγ in U937 human monocytic cells; test: U937 IFNγ ICAM1 FACS Assay; type: cell-based; settings: Homo sapiens, U-937, U937 cells stimulated with IFNγ, ICAM-1 expression by FACS; read-out: IC50, Example 44
Summary of the method: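 U937 cells in 10% FCS RPMI were preincubated 30 min at 37 °C with an 8-point, 3-fold compound dilution series in duplicate, then stimulated with IFNγ for 18–24 h. Surface ICAM-1 was stained with APC anti-ICAM-1 and read by flow cytometry as geometric mean on live-gated cells. EC50 was derived.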

[2] = test system: IL-4 stimulated expression of CD23 in human Ramos B cells (JAK-1 and JAK-3); test: Assay for Ramos B-Cell Line Stimulated with IL-4 (CD23 upregulation, FACS); type: cell-based; settings: Homo sapiens, Ramos, Ramos B cells stimulated with IL-4, CD23 expression by FACS; read-out: IC50, Example 41
Summary of the method: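 Human Ramos B cells in RPMI with 5% serum were pre-incubated with compound or DMSO for 1 h at 37 °C, then stimulated with IL-4 at a final 50 units/mL for 20-24 h. CD23 upregulation was measured by anti-CD23-PE staining and flow cytometry, and IC50 values were calculated.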

Row | SMILES | IC50 [1] [nM] | IC50 [2] [nM]
1 | COc1ccc(Nc2nc(Nc3cc(C)c(F)c(S(N)(=O)=O)c3)ncc2F)cc1Cl [VI-15, N2-(3-Aminosulfonyl-4-fluoro-5-methylphenyl)-N4-(3-chloro-4-methoxyphenyl)-5-fluoro-2,4-pyrimidinediamine] | 767 | 45
2 | Cc1ccc(Nc2ncc(F)c(Nc3cccc4cccnc34)n2)cc1S(N)(=O)=O [VII-77, N2-(3-Aminosulfonyl-4-methylphenyl)-5-fluoro-N4-(quinolin-8-yl)-2,4-pyrimidinediamine] | 3540 | 124
3 | CN1C(=O)CSc2ccc(Nc3nc(Nc4ccc(S(N)(=O)=O)cc4)ncc3F)cc21 [VII-48, N2-(4-Aminosulfonylphenyl)-5-fluoro-N4-(4-methyl-3-oxo-benz[1,4]thiazin-6-yl)-2,4-pyrimidinediamine] | 660 | 30.8

Continued by falling IC50 [1], values first:

Row | IC50 [1] [nM] | IC50 [2] [nM] | SMILES
4 | 1230 | 33 | Cc1ccc(Nc2ncc(F)c(Nc3ccc4c(c3)NC(=O)CS4)n2)cc1S(N)(=O)=O [VII-44, N2-(3-Aminosulphonyl-4-methyl-phenyl)-5-fluoro-N4-(3-oxo-4H-benzo[1,4]thiazin-6-yl)-2,4-pyrimidinediamine]
5 | 245 | 44.8 | Cc1cnc(Nc2cccc(S(N)(=O)=O)c2)nc1Nc1ccc2c(c1)N(C)C(=O)CS2 [VII-35, N2-(3-Aminosulphonylphenyl)-5-methyl-N4-(4-methyl-3-oxo-benzo[1,4]thiazin-6-yl)-2,4-pyrimidinediamine]
